This note sets out measurements from EP0666253A1, “N-t-BUTYLANILINE ANALOG AND LIPID LEVEL DEPRESSANT CONTAINING THE SAME” (priority 1992, dated 1994).

Data set [1] has as its system hepatic parenchymal cells. The data set is described as follows: Action on incorporation of LDL (radioisotope-labeled LDL, primary culture). The format is cell-based, male Wistar strain rat. The conditions noted are these: Rattus norvegicus; relative to the control (DMSO only); test compound 10 µg/ml, incubated 24 hours, then labeled LDL for 4 hours; read-out: incorporation ratio of LDL. How it is done:
hepatic cells were separated from the liver of a male Wistar strain rat weighing about 200 g, and the hepatic parenchymal cells were incubated in primary culture. 48 hours thereafter, a solution of a test compound in dimethylsulfoxide (DMSO) (10 µg/ml) was added thereto and incubated for 24 hours. Then, a radioisotope-labeled low density lipoprotein (LDL) was added thereto, and incubation was continued for further 4 hours. The cells were washed with physiological saline and then lysed with sodium dodecyl sulfate (SDS), and their radioactivity was determined in a liquid scintillation counter. The control group was treated in the same manner as above except for the addition of DMSO only. […] In Table 5, the test compounds 1 to 11 correspond respectively to the hydrochlorides of the compounds of Examples 1 to 11.

The test system of a further data set is lipid level in blood. The data set is described as follows: Action on the lipid level in blood (rats on high cholesterol feed). In kind it is in vivo, Male Wistar strain rats. The settings on record: Rattus norvegicus, relative to the control, oral 25 mg/kg/day, starved 24 hours after final administration; for change in vivo at 25 mg/kg/day: high density lipoprotein-cholesterol, read-out: HDL-Ch increase rate. How it is done:
Male Wistar strain rats with weights of about 200 g were given a high cholesterol feed containing 1 % cholesterol and 0.5 % cholic acid. Simultaneously, a suspension of a test compound in 5 % aq. gum arabic was orally administered in an amount of 25 mg/kg/day. After the final administration, the animals were starved for 24 hours and then evaluated for serum total cholesterol (TC), high density lipoprotein-cholesterol (HDL-Ch) and serum triglyceride (TG) content. The control group was orally given 5 % aq. solution of gum arabic. […] In Table 4, test compounds Nos. 1 to 11 correspond respectively to the hydrochlorides of the compounds of Examples 1 to 11.

The nature of another data set: in vivo. The settings on record: mouse. How it is done: Acute toxicity was examined in the Litchfield and Wilcoxon's method where 10 ICR male mice were orally given a test compound.
The LD₅₀ of clofibrate was 1600 mg/kg.

The mark [2] stands for this setting: serum total cholesterol, suspension in 5 % aq. gum arabic, read-out: TC decrease rate.
Setting [3] is: serum triglyceride, read-out: TG decrease rate.

SMILES strings stand for the structures. Structures can show the parent of a compound that is named as a salt. Where two headings read alike, the source gives them in different places.

In the case of `CCOC(=O)C(C)(C)Oc1ccc(Cl)cc1` [clofibrate], the activation at 10 µg/mL in data set [1] is -10.5%. The change in vivo at 25 mg/kg/day with lipid level in blood was -1.6%. Moreover, the inhibition in vivo at 25 mg/kg/day in the data set with lipid level in blood (setting [2]) is 1.2%; in the data set with lipid level in blood (setting [3]), -0.9%. The same molecule gave an LD50 in “in vivo” (male, ICR, po) of 1600 mg/kg.

Regarding `CC(C)(C)N(c1ccc(Oc2ccccc2)cc1)S(C)(=O)=O` [compound of Reference Example 3, 4-(N-t-butyl)methanesulfonylaminodiphenyl ether], in data set [1], the activation at 10 µg/mL was -15.7%. Further, the change in vivo at 25 mg/kg/day in the data set on lipid level in blood is -0.7%. In addition, the inhibition in vivo at 25 mg/kg/day was 3.6% in the data set with lipid level in blood (setting [2]) and -2.1% in the data set with lipid level in blood (setting [3]).

`CCN(CC)c1ccc(Sc2ccc(C)cc2)cc1` [compound of Reference Example 4, N,N-diethyl-4-(4-tolylthio)aniline]: the inhibition in vivo at 25 mg/kg/day in the data set with lipid level in blood (setting [2]) was -16.2%; in the data set with lipid level in blood (setting [3]), 30%.

Consider `CC(C)(C)Nc1ccc(Sc2ccccc2)cc1` [test compound 1, 4-(t-butylamino)diphenylsulfide hydrochloride], for which the activation at 10 µg/mL in data set [1] was found to be 65.3%. In the data set on lipid level in blood, the change in vivo at 25 mg/kg/day was found to be 39.4%. The inhibition in vivo at 25 mg/kg/day with lipid level in blood (setting [2]) turned out to be 95.7%; with lipid level in blood (setting [3]), 48.5%. Also, the LD50 in “in vivo” (oral, 10 ICR male mice, read-out: LD₅₀) is more than 5000 mg/kg.
